Active and inactive are the calls of the source.
Legend:
[1] = test system: HEK293; assay: EBV LMP1 TES2 canonical NF-kB signalling blockers – cell-based, HEK293, luciferase, cherry-pick, dose response (AID 588343); format: functional; details: Homo sapiens
[2] = alpha-synuclein stem-loop luciferase translation blockers – H4 neuroglioma cells, luminescence, confirmation (AID 1988); format: functional, cell-based
[3] = molecular target: Peroxisome proliferator-activated receptor gamma/Nuclear receptor coactivator 3 (Homo sapiens, UniProt P37231); assay: TR-FRET dose response biochemical High Throughput Screening assay for agonists of the steroid receptor coactivator 3 (SRC-3) recruitment by the peroxisome proliferator-activated receptor gamma (PPAR gamma): non-selective agonists. [Related pubchem assays: 1301 (Confirmation screen.), 1048 (Primary screen.)]; format: functional
Chain of Peroxisome proliferator-activated receptor gamma/Nuclear receptor coactivator 3 (P37231 whole entry): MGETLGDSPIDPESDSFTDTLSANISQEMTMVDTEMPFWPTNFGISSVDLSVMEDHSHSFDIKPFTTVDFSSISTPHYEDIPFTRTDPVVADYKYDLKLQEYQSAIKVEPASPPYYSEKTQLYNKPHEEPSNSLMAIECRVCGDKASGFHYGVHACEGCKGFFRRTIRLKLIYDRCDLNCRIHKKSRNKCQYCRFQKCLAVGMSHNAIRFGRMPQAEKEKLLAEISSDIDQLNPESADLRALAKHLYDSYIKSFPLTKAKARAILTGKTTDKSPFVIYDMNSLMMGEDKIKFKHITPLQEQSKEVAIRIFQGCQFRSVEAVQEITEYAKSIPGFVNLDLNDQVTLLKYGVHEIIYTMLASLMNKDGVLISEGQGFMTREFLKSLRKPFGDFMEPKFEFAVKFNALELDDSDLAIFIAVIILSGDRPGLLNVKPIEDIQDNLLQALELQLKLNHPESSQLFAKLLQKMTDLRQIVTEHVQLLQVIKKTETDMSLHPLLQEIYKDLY
Chain of Peroxisome proliferator-activated receptor gamma/Nuclear receptor coactivator 3 (Q9Y6Q9 whole entry, further chain): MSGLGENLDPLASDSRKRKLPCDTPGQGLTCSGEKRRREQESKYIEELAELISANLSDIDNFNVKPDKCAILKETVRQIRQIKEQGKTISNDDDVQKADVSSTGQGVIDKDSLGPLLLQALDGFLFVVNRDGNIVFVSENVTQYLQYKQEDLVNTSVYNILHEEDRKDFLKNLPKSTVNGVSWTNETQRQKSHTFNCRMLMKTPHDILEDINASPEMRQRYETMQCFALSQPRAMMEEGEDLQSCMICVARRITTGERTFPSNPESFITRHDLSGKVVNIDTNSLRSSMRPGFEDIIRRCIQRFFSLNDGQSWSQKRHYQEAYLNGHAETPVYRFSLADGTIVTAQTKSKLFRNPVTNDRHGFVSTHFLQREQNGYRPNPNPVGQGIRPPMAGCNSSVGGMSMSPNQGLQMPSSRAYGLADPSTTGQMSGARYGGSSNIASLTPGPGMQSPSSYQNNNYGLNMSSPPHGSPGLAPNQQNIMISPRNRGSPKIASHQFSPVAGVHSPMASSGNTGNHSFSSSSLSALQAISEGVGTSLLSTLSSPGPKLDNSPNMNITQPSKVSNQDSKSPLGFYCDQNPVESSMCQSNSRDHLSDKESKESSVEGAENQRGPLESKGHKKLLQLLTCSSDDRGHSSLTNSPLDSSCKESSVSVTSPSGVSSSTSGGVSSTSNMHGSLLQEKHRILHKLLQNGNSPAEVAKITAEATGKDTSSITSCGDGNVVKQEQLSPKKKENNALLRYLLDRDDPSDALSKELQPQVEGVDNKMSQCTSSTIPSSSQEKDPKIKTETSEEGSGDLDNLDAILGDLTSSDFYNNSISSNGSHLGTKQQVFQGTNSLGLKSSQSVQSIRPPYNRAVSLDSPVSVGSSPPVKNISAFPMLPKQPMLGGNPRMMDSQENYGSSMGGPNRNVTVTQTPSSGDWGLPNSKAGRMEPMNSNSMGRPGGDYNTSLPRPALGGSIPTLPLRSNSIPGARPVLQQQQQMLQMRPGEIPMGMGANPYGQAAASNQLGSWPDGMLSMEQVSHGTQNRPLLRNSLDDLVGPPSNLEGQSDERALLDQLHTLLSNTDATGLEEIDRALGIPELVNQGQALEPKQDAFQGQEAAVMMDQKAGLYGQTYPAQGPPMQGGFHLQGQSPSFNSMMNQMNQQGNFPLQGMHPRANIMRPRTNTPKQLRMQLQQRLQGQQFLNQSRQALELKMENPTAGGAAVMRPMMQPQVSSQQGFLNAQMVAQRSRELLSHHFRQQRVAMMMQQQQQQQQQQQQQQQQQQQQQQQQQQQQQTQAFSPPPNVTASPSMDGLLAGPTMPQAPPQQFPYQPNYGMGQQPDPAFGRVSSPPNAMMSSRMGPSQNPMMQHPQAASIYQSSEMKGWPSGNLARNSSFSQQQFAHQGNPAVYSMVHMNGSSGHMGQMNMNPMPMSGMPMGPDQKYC

[4] = Luminescence Cell-Based Dose Response HTS to Identify Inhibitors of 5'UTR Stem-Loop Driven Prion Protein mRNA Translation in H4 Neuroglioblastoma Cells. [Related pubchem assays: 1827 (Project Summary), 1813 (Primary HTS)]; format: functional
[5] = molecular target: Peroxisome proliferator-activated receptor gamma/Nuclear receptor coactivator 2 (Homo sapiens, UniProt P37231); assay: (§1) TR-FRET dose response biochemical High Throughput Screening assay for agonists of the steroid receptor coactivator 2 (SRC-2) recruitment by the peroxisome proliferator-activated receptor gamma (PPAR gamma): non-selective agonists. [Related pubchem assays: 1297, 1032 ]; format: functional
[6] = molecular target: Peroxisome proliferator-activated receptor gamma/Nuclear receptor coactivator 1 (Homo sapiens, UniProt P37231); assay: as §1, with “1 (SRC-1)” for “2 (SRC-2)”, “assays (depositor defined):AID1300, AID1808, AID504735, AID631]” for “assays: 1297, 1032 ]”; format: protein assay
[7] = luciferase reporter signal suppression in cells – H4 neuroglioma cells, luminescence, dose response (AID 1990); format: functional, cell-based
[8] = molecular target: Dual specificity tyrosine-phosphorylation-regulated kinase 1A (Rattus norvegicus, UniProt Q63470); format: biochemical, Homo sapiens
[9] = molecular target: T1, Endoribonuclease toxin MazF (Escherichia coli K-12, UniProt P0AE70); assay: activation of MazEF endoribonuclease cleavage – biochemical, fluorescence, single-stranded RNA substrate, uHTS hits, dose response (AID 588481); format: functional
T1 sequence (P0AE70 whole entry): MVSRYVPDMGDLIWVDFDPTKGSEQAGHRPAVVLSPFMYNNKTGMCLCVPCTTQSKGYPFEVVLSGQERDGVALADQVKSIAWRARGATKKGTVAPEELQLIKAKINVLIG

[10] = molecular target: T1, Endoribonuclease toxin MazF; assay: substrate-only fluorescence increase artefacts – biochemical, single-stranded RNase substrate, counter-screen for MazEF activator project, dose response (AID 588502); format: functional
[11] = cells; format: functional
[12] = molecular target: T2, Insulin-degrading enzyme (Homo sapiens, UniProt P14735); assay: recombinant IDE activation, cell-free – biochemical, fluorescence polarization, counter-screen for IDE activator project, dose response (AID 588681)
T2 sequence (P14735 whole entry): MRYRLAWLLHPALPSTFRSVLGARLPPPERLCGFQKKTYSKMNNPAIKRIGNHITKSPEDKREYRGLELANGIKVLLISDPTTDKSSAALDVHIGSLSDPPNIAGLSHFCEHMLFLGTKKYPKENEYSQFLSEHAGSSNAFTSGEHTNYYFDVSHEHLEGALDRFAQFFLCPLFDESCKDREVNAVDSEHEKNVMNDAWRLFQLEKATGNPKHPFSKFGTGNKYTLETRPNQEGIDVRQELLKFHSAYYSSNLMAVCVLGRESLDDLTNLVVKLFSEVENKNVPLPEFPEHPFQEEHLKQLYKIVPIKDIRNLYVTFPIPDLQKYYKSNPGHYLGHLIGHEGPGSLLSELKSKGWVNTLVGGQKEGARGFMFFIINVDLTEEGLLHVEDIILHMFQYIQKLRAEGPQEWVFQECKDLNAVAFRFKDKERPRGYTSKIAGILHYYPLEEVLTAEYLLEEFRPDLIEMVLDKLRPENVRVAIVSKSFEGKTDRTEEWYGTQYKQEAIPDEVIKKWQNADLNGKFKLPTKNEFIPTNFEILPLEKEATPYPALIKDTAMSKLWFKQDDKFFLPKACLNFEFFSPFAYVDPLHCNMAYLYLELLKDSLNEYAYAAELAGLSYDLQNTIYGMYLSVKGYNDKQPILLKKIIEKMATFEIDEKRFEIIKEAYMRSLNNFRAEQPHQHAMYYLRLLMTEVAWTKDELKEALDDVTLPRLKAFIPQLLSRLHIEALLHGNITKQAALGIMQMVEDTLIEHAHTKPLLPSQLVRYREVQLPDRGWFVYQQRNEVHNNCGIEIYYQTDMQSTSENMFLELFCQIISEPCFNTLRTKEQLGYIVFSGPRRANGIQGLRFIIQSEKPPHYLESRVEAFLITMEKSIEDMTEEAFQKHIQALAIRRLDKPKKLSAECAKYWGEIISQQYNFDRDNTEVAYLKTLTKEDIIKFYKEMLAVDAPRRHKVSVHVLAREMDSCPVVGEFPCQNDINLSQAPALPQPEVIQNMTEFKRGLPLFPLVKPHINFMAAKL

[13] = molecular target: T2, Insulin-degrading enzyme; assay: cellular IDE activation of Abeta substrate cleavage – fluorescence polarization, HEK cells, dose response (AID 588439); format: functional, cell-based
[14] = test system: HEK293; assay: membrane integrity loss in HEK cells – cell-based, fluorescence, cytotoxicity control for IDE activator project, dose response (AID 588440); format: functional; details: Homo sapiens;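 note: cytotoxicity by LDH release measuring loss of membrane integrity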
[15] = test system: HEK293; assay: optical interference in Abeta FP readout, dose response, artefact control for IDE activator project, biochemical, fluorescence polarization (AID 588442); format: functional, cell-based; details: Homo sapiens
[16] = molecular target: Cytochrome P450 2D6 (Homo sapiens, UniProt P10635);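 note: CYP2D6 member of a cytochrome P450 panel assay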
[17] = molecular target: T3, Voltage-gated N-type calcium channel alpha-1B subunit/Amyloid beta A4 precursor protein-binding family A member 1 (Homo sapiens, UniProt Q00975+Q02410); format: protein assay
T3 sequence (Q00975 whole entry): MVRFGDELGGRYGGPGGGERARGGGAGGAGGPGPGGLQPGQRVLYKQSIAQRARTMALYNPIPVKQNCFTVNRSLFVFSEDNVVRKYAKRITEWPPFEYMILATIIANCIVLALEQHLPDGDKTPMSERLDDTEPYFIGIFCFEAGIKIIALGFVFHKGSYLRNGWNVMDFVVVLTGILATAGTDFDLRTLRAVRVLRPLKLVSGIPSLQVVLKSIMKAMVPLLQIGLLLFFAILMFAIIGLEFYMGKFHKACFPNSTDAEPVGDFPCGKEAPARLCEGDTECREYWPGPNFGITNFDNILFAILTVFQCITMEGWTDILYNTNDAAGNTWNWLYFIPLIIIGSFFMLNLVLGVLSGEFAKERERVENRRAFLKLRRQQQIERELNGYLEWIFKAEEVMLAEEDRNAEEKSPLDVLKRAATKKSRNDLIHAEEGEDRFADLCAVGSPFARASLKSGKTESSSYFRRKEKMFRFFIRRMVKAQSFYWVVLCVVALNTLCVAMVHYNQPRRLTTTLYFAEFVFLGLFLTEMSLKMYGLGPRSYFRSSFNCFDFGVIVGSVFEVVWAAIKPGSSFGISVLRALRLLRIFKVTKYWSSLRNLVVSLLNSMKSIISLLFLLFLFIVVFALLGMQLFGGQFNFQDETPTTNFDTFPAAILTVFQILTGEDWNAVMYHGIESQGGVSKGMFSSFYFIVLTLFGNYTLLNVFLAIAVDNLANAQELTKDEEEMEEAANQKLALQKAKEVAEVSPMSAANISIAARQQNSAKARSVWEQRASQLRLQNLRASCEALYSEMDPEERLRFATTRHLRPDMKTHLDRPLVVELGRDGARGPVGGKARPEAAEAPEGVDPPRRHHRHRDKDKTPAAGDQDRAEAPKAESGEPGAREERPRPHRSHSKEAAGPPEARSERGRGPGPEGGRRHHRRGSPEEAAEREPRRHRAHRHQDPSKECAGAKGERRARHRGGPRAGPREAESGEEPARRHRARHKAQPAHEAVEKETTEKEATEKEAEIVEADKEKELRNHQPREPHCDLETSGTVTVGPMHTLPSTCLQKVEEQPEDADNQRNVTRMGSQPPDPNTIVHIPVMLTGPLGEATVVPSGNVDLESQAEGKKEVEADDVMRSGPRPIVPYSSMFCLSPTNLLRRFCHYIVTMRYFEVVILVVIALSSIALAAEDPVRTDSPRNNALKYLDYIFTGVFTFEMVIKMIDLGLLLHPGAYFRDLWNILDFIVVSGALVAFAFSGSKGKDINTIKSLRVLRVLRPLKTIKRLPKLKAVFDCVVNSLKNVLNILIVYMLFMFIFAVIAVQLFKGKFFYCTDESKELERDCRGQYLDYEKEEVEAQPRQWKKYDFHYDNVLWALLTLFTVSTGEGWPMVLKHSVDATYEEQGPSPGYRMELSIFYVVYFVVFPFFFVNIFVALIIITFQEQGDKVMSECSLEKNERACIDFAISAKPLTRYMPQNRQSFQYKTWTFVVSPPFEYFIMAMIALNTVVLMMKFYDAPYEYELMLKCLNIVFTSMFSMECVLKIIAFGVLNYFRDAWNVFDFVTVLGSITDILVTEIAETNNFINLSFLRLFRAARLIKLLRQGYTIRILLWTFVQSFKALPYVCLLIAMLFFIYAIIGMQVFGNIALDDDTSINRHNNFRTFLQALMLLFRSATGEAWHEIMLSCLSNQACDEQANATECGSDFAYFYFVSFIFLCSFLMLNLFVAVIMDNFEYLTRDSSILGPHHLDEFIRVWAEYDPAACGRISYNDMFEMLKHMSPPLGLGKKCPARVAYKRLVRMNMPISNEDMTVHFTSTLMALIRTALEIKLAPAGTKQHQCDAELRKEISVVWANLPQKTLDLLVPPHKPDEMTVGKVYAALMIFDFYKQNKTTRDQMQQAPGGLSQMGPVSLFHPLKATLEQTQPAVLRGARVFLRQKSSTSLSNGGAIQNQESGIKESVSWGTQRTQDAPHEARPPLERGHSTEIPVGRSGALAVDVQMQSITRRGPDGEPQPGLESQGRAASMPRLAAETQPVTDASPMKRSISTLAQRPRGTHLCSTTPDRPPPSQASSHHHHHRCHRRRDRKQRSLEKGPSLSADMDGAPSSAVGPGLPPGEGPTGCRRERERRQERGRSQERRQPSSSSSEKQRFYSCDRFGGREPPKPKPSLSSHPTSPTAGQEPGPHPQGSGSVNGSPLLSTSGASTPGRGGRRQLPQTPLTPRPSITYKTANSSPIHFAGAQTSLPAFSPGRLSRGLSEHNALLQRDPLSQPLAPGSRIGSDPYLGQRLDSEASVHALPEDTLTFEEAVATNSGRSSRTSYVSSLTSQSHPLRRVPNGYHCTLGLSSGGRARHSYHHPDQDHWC
T3 sequence (Q02410 whole entry): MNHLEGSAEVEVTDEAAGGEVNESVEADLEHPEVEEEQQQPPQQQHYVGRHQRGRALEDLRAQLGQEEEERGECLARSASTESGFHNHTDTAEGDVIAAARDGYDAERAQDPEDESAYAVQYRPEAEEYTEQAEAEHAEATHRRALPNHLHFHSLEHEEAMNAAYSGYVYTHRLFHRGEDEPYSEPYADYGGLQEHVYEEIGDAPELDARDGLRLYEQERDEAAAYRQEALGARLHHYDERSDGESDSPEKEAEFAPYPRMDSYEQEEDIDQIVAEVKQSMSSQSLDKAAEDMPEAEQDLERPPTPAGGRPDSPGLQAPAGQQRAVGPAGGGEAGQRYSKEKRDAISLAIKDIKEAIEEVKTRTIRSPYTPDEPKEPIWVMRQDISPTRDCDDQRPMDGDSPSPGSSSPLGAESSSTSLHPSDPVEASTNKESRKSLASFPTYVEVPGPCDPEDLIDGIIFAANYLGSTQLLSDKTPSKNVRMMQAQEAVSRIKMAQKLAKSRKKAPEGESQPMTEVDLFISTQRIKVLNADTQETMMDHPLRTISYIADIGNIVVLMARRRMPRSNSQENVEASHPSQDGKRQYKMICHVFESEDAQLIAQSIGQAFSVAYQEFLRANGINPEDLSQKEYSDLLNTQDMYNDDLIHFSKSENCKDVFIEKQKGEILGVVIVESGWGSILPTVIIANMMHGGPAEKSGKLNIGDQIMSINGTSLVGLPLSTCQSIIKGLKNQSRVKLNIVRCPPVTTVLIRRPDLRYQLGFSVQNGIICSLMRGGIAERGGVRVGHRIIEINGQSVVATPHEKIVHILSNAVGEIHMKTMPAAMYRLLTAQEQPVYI

[18] = molecular target: T3, Voltage-gated N-type calcium channel alpha-1B subunit/Amyloid beta A4 precursor protein-binding family A member 1; format: protein assay; remark: listed apart in the source
[19] = molecular target: DNA dC->dU-editing enzyme APOBEC-3G (Homo sapiens, UniProt Q9HC16); assay: Dose Response confirmation of small molecule APOBEC3G DNA Deaminase Inhibitors via a fluorescence-based single-stranded DNA deaminase assay. [Related pubchem assays (depositor defined):AID493012, AID493028]; format: functional
[20] = molecular target: DNA dC->dU-editing enzyme APOBEC-3A (Homo sapiens, UniProt P31941); assay: A3A deaminase inhibition for selectivity – biochemical, dose response (AID 504722); format: functional
[21] = molecular target: Large T antigen (Simian virus 40, UniProt P03070); format: functional, Betapolyomavirus macacae;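 note: Confirmatory-stage PubChem screen for compounds that inhibit SV40 T antigen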
[22] = molecular target: FAD-linked sulfhydryl oxidase ALR (Homo sapiens, UniProt P55789); assay: ALR-catalysed DTT oxidation blockers – biochemical, H2O2 detection, luminescence, cherry-pick, dose response (AID 493248)
[23] = molecular target: T4, Carboxy-terminal domain RNA polymerase II polypeptide A small phosphatase 1 (Homo sapiens, UniProt Q9GZU7); assay: CTDSP1 inhibitors, concentration-response, biochemical, absorbance readout, ultra-high-throughput screen actives (AID 540297); format: functional
T4 sequence (Q9GZU7 whole entry): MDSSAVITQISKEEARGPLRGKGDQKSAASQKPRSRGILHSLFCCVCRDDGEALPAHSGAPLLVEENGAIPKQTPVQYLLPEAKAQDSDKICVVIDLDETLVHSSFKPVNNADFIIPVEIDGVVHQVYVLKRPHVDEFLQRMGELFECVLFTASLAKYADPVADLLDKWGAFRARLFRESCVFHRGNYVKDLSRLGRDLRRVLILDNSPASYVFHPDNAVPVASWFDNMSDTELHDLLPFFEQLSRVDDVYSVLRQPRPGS

Compound: COc1ccccc1NC(=O)CC(c1ccc(OC(C)C)cc1)c1ccccc1OC (stereo not given)
- AC50 [1]: 194 µM (active)

Compound: CCCC1O[C@@H]2CC3C4CCC5=CC(=O)C=C[C@]5(C)C4C(OC(C)=O)C[C@]3(C)[C@]2(C(=O)COC(C)=O)O1 (stereo not given in full)
- EC50 [2]: 18.8 µM (active)
- EC50 [3]: 4.66 µM (active)
- EC50 [4]: > 120 µM (not active)
- EC50 [5]: 8.71 µM (active)
- EC50 [6]: 6.65 µM (active)
- EC50 [7]: 22.1 µM (active)

Compound: O=C1NC(=O)N(c2ccccc2)C(=O)/C1=C/c1c(-c2ccccc2)[nH]c2ccccc12
- AC50 [8]: 2.65 µM (active)

Compound: CCCCn1c(O)c(N=Nc2ccccc2O)c2ccccc21
- EC50 [9]: 44.9 µM (inactive)
- EC50 [10]: 69.5 µM (inactive)

Compound: Cn1c(=O)cc(SCC(=O)N2CCN(Cc3ccc4c(c3)OCO4)CC2)c2ccccc21
- EC50 [3]: > 79.4 µM (not active)
- EC50 [5]: > 79.4 µM (not active)
- EC50 [6]: > 79.4 µM (inactive)

Compound: CC(=O)n1cc(/C=C2/N=C(c3ccccc3)OC2=O)c2ccccc21
- EC50 [9]: > 99 µM (inactive)
- IC50 [11]: 4.63 µM (active)
- EC50 [10]: > 99 µM (inactive)

Compound: O=C1C=C(c2cccc3c2sc2ccccc23)C[C@@H](c2ccc(Cl)cc2)C1
- EC50 [12]: > 54.7 µM (inactive)
- EC50 [13]: > 54.7 µM (inactive)
- IC50 [14]: > 89.2 µM (inactive)
- EC50 [15]: > 54.7 µM (inactive)

Compound: O=C(O)CCC(=O)c1ccc2ccc3cccc4ccc1c2c34
- AC50 [16]: inconclusive

Compound: O=C1C2C(C(=O)N1/N=C/c1ccc(N3CCCCC3)o1)C1C=CC2C12CC2 (stereo not given)
- IC50 [17]: 7.24 µM (active)
- IC50 [18]: 20.1 µM (active)

Compound: COc1cc(/C=N/n2c(S)nnc2-c2[nH]nc3c2CCC3)cc(OC)c1O
- IC50 [19]: 1.81 µM (active)
- IC50 [20]: > 100 µM (inactive)
- IC50 [21]: 24 µM (active)
- AC50 [22]: 0.011 µM (active)

Compound: COc1ccc([C@@H]2CC(=O)c3c(O)cc(O[C@@H]4O[C@H](CO[C@@H]5O[C@@H](C)[C@H](O)[C@@H](O)[C@H]5O)[C@@H](O)[C@H](O)[C@H]4O)cc3O2)cc1O [HESPERIDIN]
- IC50 [17]: 9.5 µM (active)
- IC50 [18]: > 50 µM (inactive)
- IC50 [23]: 20.7 µM (active)
